From publication PMC6475490 (Psychopharmacology, 2018)
Entries after “also recorded” stand apart in the source; their conditions may differ.

System: transporters
Test: not given
Conditions: CF3 analogs; ref Cozzi et al. 2013; cited from earlier work
For CNC(C)C(=O)c1ccc(C(F)(F)F)cc1 (centres unmarked) [Compound 22], the “relative selectivity (DAT selectivity)” value is given as < 0.04.

System: rats
Test: not given
Conditions: ref Gatch et al. 2015; cited from earlier work
For CNC(C)C(=O)c1cccc(F)c1 (centres unmarked) [Compound 13, 3-fluoromethcathinone], the locomotor stimulation is listed as “induce locomotor stimulation”.

System: DAT, SERT, and NET
Test: not given
Assay type: biochemical, rat
Conditions: from DAT, SERT EC50 and NET screening data
For CNC(C)C(=O)c1ccccc1F (centres unmarked) [Compound 7], the “transporter selectivity profile in words” value was “DAT selective”. In the case of CNC(C)C(=O)c1ccc(C(F)(F)F)cc1 (centres unmarked) [Compound 22], the “transporter selectivity profile in words” value is reported as “most serotonergic; also recorded: low DAT selectivity”. In the case of CNC(C)C(=O)c1ccccc1 (centres unmarked) [Compound 1, methcathinone], the “transporter selectivity profile in words” value is reported as “DAT selective”. For CNC(C)C(=O)c1ccccc1C (centres unmarked) [Compound 10], the “transporter selectivity profile in words” value was “DAT selective”. In the case of CNC(C)C(=O)c1ccccc1C(F)(F)F (centres unmarked) [Compound 8], the “transporter selectivity profile in words” value is reported as “selective NET releaser; also recorded: selective NE releasers”. With Cl.NCC(=O)c1ccccc1 [Compound 6, phenacylamine, reference compound] the “transporter selectivity profile in words” value was “DAT selective”. For CNC(C)C(=O)c1cccc(C(F)(F)F)c1 (centres unmarked) [Compound 14], the “transporter selectivity profile in words” value was “SERT/NET selective releasers; also recorded: selective 5-HT releasers”. With CNC(C)C(=O)c1cccc(F)c1 (centres unmarked) [Compound 13, 3-fluoromethcathinone] the “transporter selectivity profile in words” value was “highly potent, DAT selective compound”.

System: rats
Test: not given
Conditions: ref Glennon et al. 1987; cited from earlier work
In the case of CNC(C)C(=O)c1ccccc1 (centres unmarked) [Compound 1, methcathinone], the “substitution for amphetamine in drug discrimination” value is listed as “substitute for amphetamine”.

Target: NET (Rattus norvegicus, UniProt Q63380)
Sequence (Q63380 1-617): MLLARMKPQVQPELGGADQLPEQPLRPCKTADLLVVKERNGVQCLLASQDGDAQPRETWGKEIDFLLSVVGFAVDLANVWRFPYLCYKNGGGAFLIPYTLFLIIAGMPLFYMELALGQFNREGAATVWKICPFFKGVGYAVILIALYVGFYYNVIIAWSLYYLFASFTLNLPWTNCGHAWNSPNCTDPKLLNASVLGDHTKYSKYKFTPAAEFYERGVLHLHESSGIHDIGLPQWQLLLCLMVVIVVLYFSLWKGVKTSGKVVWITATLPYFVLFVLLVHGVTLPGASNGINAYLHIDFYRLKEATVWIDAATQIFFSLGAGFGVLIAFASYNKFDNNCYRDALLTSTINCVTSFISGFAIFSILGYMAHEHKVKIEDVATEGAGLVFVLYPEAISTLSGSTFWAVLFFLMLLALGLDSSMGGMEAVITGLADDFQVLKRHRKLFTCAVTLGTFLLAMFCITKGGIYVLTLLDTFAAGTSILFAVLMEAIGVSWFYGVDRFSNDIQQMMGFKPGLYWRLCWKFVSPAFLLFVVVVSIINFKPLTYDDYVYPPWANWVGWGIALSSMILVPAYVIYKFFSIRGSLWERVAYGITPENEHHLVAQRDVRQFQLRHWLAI
Test: NET-mediated [3H]MPP+ release screen in rat brain synaptosomes
Assay type: biochemical
Conditions: based on % release at 10 µM screening data
With CNC(C)C(=O)c1c[nH]c2ccccc12 (centres unmarked) [Compound 28, 3-indoylmethcathinone] the “NET / NE release activity in words” value was “much weaker than its DAT release potency”. In the case of CNC(C)C(=O)c1ccccc1OC(F)(F)F (centres unmarked) [Compound 9], the “NET / NE release activity in words” value is reported as “weak”. In the case of CNC(C)C(=O)c1ccccc1C(F)(F)F (centres unmarked) [Compound 8], the “NET / NE release activity in words” value is reported as “appears active as a NE releaser”.

System: baboons
Test: not given
Conditions: ref Kaminski and Griffiths 1994; cited from earlier work
In the case of CNC(C)C(=O)c1ccccc1 (centres unmarked) [Compound 1, methcathinone], the self-administration is listed as “dose-dependently maintain self-administration”.

Target: SERT (Rattus norvegicus, UniProt P31652)
Sequence (P31652 whole entry): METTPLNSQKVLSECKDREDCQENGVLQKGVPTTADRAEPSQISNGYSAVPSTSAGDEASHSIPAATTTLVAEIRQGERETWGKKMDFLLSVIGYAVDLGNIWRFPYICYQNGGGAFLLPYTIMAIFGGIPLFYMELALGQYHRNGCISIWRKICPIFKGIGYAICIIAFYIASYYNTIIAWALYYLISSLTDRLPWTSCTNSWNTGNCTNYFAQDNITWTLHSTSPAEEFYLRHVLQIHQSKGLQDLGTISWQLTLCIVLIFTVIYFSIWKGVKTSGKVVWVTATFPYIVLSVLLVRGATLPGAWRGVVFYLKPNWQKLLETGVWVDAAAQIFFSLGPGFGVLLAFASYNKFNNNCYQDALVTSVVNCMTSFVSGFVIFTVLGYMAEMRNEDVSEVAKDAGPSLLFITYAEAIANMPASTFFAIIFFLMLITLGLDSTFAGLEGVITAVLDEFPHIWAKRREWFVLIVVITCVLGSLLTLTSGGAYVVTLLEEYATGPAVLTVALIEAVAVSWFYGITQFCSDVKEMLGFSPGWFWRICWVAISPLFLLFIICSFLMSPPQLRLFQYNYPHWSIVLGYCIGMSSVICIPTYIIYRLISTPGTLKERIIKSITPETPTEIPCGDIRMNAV
Test: SERT-mediated [3H]5-HT release assay in rat brain synaptosomes
Assay type: biochemical
Conditions: relative to methcathinone 1
For CNC(C)C(=O)c1ccc(C(F)(F)F)cc1 (centres unmarked) [Compound 22], the “fold more potent at 5-HT release (SERT) compared to 1” value (from here on “fold more potent at 5-HT release”) was 15 fold. With CNC(C)C(=O)c1cccc2ccccc12 (centres unmarked) [Compound 26, 1-naphthylmethcathinone] the “fold more potent at 5-HT release” value was 198 fold. For CNC(C)C(=O)c1ccc(C)cc1 (centres unmarked) [Compound 24, mephedrone, reference compound], the “fold more potent at 5-HT release” value was 36 fold. With CNC(C)C(=O)c1c[nH]c2ccccc12 (centres unmarked) [Compound 28, 3-indoylmethcathinone] the “fold more potent at 5-HT release” value was 103 fold. With CNC(C)C(=O)c1ccccc1C (centres unmarked) [Compound 10] the “fold more potent at 5-HT release” value was 12 fold. With CNC(C)C(=O)c1ccc(C)c(Cl)c1 (centres unmarked) [Compound 31] the “fold more potent at 5-HT release” value was 102 fold. In the case of CNC(C)C(=O)c1cccc(Br)c1 (centres unmarked) [Compound 11], the “fold more potent at 5-HT release” value is reported as 31 fold. In the case of CNC(C)C(=O)c1cccc(C)c1 (centres unmarked) [Compound 16], the “fold more potent at 5-HT release” value is reported as 14.6 fold. In the case of CNC(C)C(=O)c1ccc(Br)cc1 (centres unmarked) [Compound 19], the “fold more potent at 5-HT release” value is reported as 100 fold. For CNC(C)C(=O)c1ccc(F)cc1 (centres unmarked) [Compound 21], the “fold more potent at 5-HT release” value was 2.9 fold. In the case of CNC(C)C(=O)c1cccc(C(F)(F)F)c1 (centres unmarked) [Compound 14], the “fold more potent at 5-HT release” value is reported as 14 fold. In the case of CNC(C)C(=O)c1cccc(F)c1 (centres unmarked) [Compound 13, 3-fluoromethcathinone], the “fold more potent at 5-HT release” value is reported as 2.9 fold.

Target: DAT (Rattus norvegicus, UniProt P23977)
Sequence (P23977 whole entry): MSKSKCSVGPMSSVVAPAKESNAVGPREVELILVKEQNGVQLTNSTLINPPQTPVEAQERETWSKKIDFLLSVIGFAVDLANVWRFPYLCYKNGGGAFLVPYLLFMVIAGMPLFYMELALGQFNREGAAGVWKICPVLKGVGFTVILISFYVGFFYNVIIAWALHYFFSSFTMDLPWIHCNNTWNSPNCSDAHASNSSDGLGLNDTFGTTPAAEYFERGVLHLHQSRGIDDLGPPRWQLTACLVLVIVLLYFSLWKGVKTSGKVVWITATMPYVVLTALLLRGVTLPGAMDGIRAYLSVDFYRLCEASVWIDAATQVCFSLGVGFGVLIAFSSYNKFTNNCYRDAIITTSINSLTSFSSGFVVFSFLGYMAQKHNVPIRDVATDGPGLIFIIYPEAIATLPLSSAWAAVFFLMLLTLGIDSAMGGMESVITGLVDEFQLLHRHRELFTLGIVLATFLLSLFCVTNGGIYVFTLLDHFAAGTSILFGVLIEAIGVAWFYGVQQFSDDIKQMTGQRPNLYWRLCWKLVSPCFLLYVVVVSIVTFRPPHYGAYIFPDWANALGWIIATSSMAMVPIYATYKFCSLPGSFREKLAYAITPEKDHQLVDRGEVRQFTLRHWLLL
Test: DAT-mediated [3H]DA release assay in rat brain synaptosomes
Assay type: biochemical
Conditions: read-out: DA release EC50; bound stated
For CNC(C)C(=O)c1ccc(C(F)(F)F)cc1 (centres unmarked) [Compound 22], the EC50 was > 4 µM.

Same assay, conditions: relative to methcathinone 1
With CNC(C)C(=O)c1c[nH]c2ccccc12 (centres unmarked) [Compound 28, 3-indoylmethcathinone] the “fold less potent at DA release (DAT) compared to 1” value (“fold less potent at DA release” for short) was ~2 fold. With CNC(C)C(=O)c1ccccc1C (centres unmarked) [Compound 10] the “fold less potent at DA release” value was 2 fold. For CNC(C)C(=O)c1ccc(C)c(Cl)c1 (centres unmarked) [Compound 31], the “fold less potent at DA release” value was 2.5 fold. With CNC(C)C(=O)c1cccc(Br)c1 (centres unmarked) [Compound 11] the “fold more potent at DA release (DAT) compared to 1” value was ~2 fold. For CNC(C)C(=O)c1ccc(F)cc1 (centres unmarked) [Compound 21], the “fold less potent at DA release” value was 2.4 fold. For Cl.NCC(=O)c1ccccc1 [Compound 6, phenacylamine, reference compound], the “fold less potent at DA release” value was 4.2 fold. With CNC(C)C(=O)c1cccc(C(F)(F)F)c1 (centres unmarked) [Compound 14] the “fold less potent at DA release” value was 26 fold.
